Several values for one entry are separate records, joined by “and”; a condition that tells them apart may be missing. Equal values may be shown once. Read-outs that look alike come from different tables or passages of the source. Blank lines part the entries; values can stand above or below the molecule they belong to.
Columns and labels:
[1] = Diffusion assay through lung ECM hydrogel; assay type: physicochemical
Source text: The difference in IC50 values of the three drugs in this study are attributable to the different cellular mechanism that each drug targets as well as expression of and access to each target. Erlotinib is an inhibitor of epidermal growth factor receptor (EGFR) tyrosine kinase, whereas Etoposide inhibits DNA topoisomerase II, which prevents DNA ligation and ultimately causes DNA strands to break. KPT-185 induces apoptosis as a selective inhibitor of nuclear export (SINE) compound. […] Another important consideration for drug testing in 3D culture systems is drug permeability through the ECM and cell membrane.

[2] = test system: Human lung adenocarcinoma Jacket cells; test: XTT cell viability / IC50 of anti-cancer drugs, Jacket cells in 3D lung tumor model; assay type: cell-based; details: for growth inhibition (cell viability): Jacket cells, doses 0.1-10 μM, 3D TissueSpec® Lung ECM Hydrogel and 2D plastic
Experimental: (§1) Cell Expansion. […] Forming 3D Lung Tumor Model. […] Drug Treatment. […] After 72 hours, cell viability was assayed. […] Cell Proliferation Assay. […] Data Analysis.

[3] = test system: Human lung adenocarcinoma A549 cells; test: XTT cell viability / IC50 of anti-cancer drugs, A549 cells in 3D lung tumor model; assay type: cell-based; details: for IC50: 72 h drug
Experimental: as §1

[4] = test system: MCF-7 and MB-231 breast cancer cells; details: previous studies; cited from earlier work
[5] = clinical trials; cited from earlier work
[6] = test system: breast cancer cells T47-D; test: Viability assay of breast cancer cells embedded in TissueSpec ECM hydrogels; assay type: cell-based, human; design: dose or concentration left out as unconfirmed; details: 72 hours, Bone, Liver, Lung ECM Hydrogels, Matrigel, plastic
[7] = Homo sapiens, 72 h, Jacket cells in Matrigel®, 72 h drug, read-out: IC50
[8] = Homo sapiens, 72 h, Jacket cells in TissueSpec® Lung ECM Hydrogel (3D), 72 h drug, read-out: IC50
[9] = Homo sapiens, 72 h, Jacket cells on Plastic (no ECM), 2D, 72 h drug, read-out: IC50
[10] = Homo sapiens, A549, 72 h, A549 cells in Matrigel®
[11] = Homo sapiens, A549, 72 h, A549 cells in TissueSpec® Lung ECM Hydrogel (3D)
[12] = Homo sapiens, A549, 72 h, A549 cells on Plastic (no ECM), 2D
[13] = Jacket cells in TissueSpec® Lung ECM Hydrogel, reproducibility, two rounds, read-out: IC50 in two separate rounds of testing

diffusion speed through TissueSpec® Lung ECM Hydrogel [1]: ≥ 1.3 mm/h
Structure (SMILES): CC1=CC(C)(C)N(C)c2cc3[o+]c4cc5c(cc4c(-c4cc(NC(=O)c6ccc(CCl)cc6)ccc4C(=O)[O-])c3cc21)C(C)=CC(C)(C)N5C.CC1=CC(C)(C)N(C)c2cc3[o+]c4cc5c(cc4c(-c4ccc(NC(=O)c6ccc(CCl)cc6)cc4C(=O)[O-])c3cc21)C(C)=CC(C)(C)N5C [CellTracker Red CMTPX]

IC50 [2, 7]: 8.7 µM
IC50 [2, 8]: 7.5 µM
IC50 [2, 9]: 5.2 µM
IC50 [3, 10]: 57.5 µM
IC50 [3, 11]: 134 µM
IC50 [3, 12]: 36.4 µM
Structure (SMILES): C#Cc1cccc(Nc2ncnc3cc(OCCOC)c(OCCOC)cc23)c1 [Erlotinib]
growth inhibition (cell viability) ([3]; A549 cells, doses 0.1-10 μM, 3D TissueSpec® Lung ECM Hydrogel and plastic): dose-dependent growth inhibition

IC50 ([2]; Jacket cells in Matrigel®, 72 h drug, read-out: IC50): 4.3 µM
IC50 ([2]; Jacket cells in TissueSpec® Lung ECM Hydrogel (3D), 72 h drug, read-out: IC50): 0.4 µM
IC50 [2, 13]: 0.4 µM
IC50 ([2]; Jacket cells on Plastic (no ECM), 2D, 72 h drug, read-out: IC50): 0.2 µM
IC50 ([3]; A549 cells in Matrigel®): 4.2 µM
IC50 ([3]; A549 cells in TissueSpec® Lung ECM Hydrogel (3D)): 2.3 µM
IC50 ([3]; A549 cells on Plastic (no ECM), 2D): 8.8 µM
Structure (SMILES): COc1cc(-c2ncn(/C=C\C(=O)OC(C)C)n2)cc(C(F)(F)F)c1 [KPT-185]
growth inhibition (cell viability) [2]: dose-dependent growth inhibition

Second part, the molecule before the results:

Structure (SMILES): COc1cc([C@@H]2c3cc4c(cc3[C@@H](O[C@@H]3O[C@@H]5CO[C@@H](C)O[C@H]5[C@H](O)[C@H]3O)[C@H]3COC(=O)[C@H]23)OCO4)cc(OC)c1O [Etoposide]
IC50 [2, 7]: 15.8 µM
IC50 [2, 8]: 3.7 µM
IC50 [2, 9]: 4.4 µM
IC50 ([2]; Homo sapiens, Jacket cells in TissueSpec® Lung ECM Hydrogel, reproducibility, two rounds, read-out: IC50 in two separate rounds of testing): 3.8 µM
IC50 ([2]; Jacket cells in Matrigel®, reproducibility, two rounds, read-out: IC50 in two separate rounds of testing): 0.7 µM
IC50 [2, 13]: 4 µM
growth inhibition (cell viability) [2]: dose-dependent growth inhibition
IC50 [3, 10]: 35.5 µM
IC50 [3, 11]: 16.6 µM
IC50 [3, 12]: 40.3 µM

Structure (SMILES): COc1cccc2c1C(=O)c1c(O)c3c(c(O)c1C2=O)C[C@@](O)(C(=O)CO)C[C@@H]3O[C@H]1C[C@H](N)[C@H](O)[C@H](C)O1 [doxorubicin]
resistance when cultured in Matrigel® [4]: more resistant to doxorubicin when cultured in Matrigel®

Structure (SMILES): CNC(=O)c1cc(Oc2ccc(NC(=O)Nc3ccc(Cl)c(C(F)(F)F)c3)cc2)ccn1 [sorafenib]
HCC patient plasma concentration [5]: 2 mg/L and 4 μM

Structure (SMILES): CC/C(=C(\c1ccccc1)c1ccc(OCCN(C)C)cc1)c1ccccc1 [tamoxifen, Tamoxifen]
differential viability response by substrate [6]: cells embedded in lung and bone ECM are more resistant than cells embedded in liver, matrigel or plastic

From patent US20240200003A1, “DEVICES AND METHODS FOR IN VITRO MODELING OF METASTATIC CANCER” (XYLYX BIO, INC., priority 2020, published 2024)
